From article PMC8623418, “Novel Multitarget Hydroxamic Acids with a Natural Origin CAP Group against Alzheimer’s Disease: Synthesis, Docking and Biological Evaluation” (Pharmaceutics, 2021)

Legend:
β-amyloid 1–40 = β-amyloid 1–40 aggregation, Thioflavin T fluorescence; format: biochemical; conditions: 100 μM, 72 h incubation
Description: The effect of the studied compounds on the aggregation of β-amyloid (1–40/1–42) was analyzed using the method of recording Thioflavin T fluorescence (10 µM) for 72 h at 37 °C. The fluorescence signal was measured using a multifunctional flatbed analyzer, the Cytation ™ 3 (BioTek Instruments, Inc., Winooski, VT, USA), at λex = 450 nm, λem = 480 nm.
The effect of hydroxamic acids on the stage of aggregation of the pathological β-amyloid peptide was investigated for 72 h using two model systems—fragments Aβ1–40 and Aβ1–42. The fluorophore Thioflavin T was used as an indicator of the ongoing fibrillation process, the interaction of which with proteins in the state of amyloid fibrils leads to an increase in the fluorescence signal.

5xFAD transgenic mice [1] = assay: Morris Water Maze Test in 5xFAD mice; format: in vivo; conditions: for Mean latency time to hidden platform, first training day / Mean latency time to hidden platform, fourth training day: 15 mg/kg i.p. for 20 days, mean ± SEM; for Mean latency time to hidden platform, first training day: day 1; for Mean latency time to hidden platform, fourth training day: day 4
Description: All animal procedures were approved by the Animal Care and Use Committee of IPAC RAS. For in vivo studies, 11-month-old male mice of the 5xFAD line (Tg(APPSwFlLon,PSEN1*M146L*L286V) 6799Vas/J) were used. The animals were housed in cages with free access to water and food in a room with a 12 h/12 h light–dark cycle, at a temperature of 23 ± 1 °C and humidity of 50 ± 5%. Before the series of experiments, animals were randomly divided into four groups (n = 8 per group): (1) wild-type group (C57BL6/j mouse line); (2) 5xFAD group; (3) 5xFAD + 15 group; and (4) 5xFAD + 25 group. Both compounds 15 and 25 were dissolved in saline solution and DMSO (10%) immediately before use and intraperitoneally administered to animals for 20 days at a dose of 15 mg/kg body weight for experiments. In the control group, the vehicle solution (saline and DMSO (10%), intraperitoneal) was administered with the same time schedule. The Morris Water Maze Test was performed based on the Morris paradigm, 1985, modified. This test allowed us to evaluate spatial learning and memory formation in mice. The experimental apparatus consisted of a circular pool (diameter, 150 cm; height, 60 cm; OpenScience, Russia) containing water at 22 ± 1 °C. The lighting conditions were as follows: dark side of the pool was 50 lx; bright side was 75 lx. The pool was equally divided into quadrants. A platform (diameter, 10 cm) was positioned inside the reservoir, placed 1 cm below the water surface in the target quadrant of the maze. The platform and pool were white with anti-glare coating, which, together with shadowless lamp lighting, created the effect of an invisible platform that was hidden under the water. As visual cues, we used 4 figures (OpenScience, Moscow, Russia) fixed on the racks and located at the pool sides. The test is based on two phases: the acquisition phase (training days) and the retention phase (probe trial) (Figure 7A). Initially, the training session was performed, during which each animal was placed into the water facing the pool wall. After placing, each animal was given 60 s to find and mount onto the hidden platform. […] Each mouse received training sessions, and the test was repeated four times for four consecutive days in acquisition training (sum 16 trials for training). All 4 start positions for each day (north, south, east, west) were deliberately randomized. The probe trial was performed on the 5th day after the training phase: there were no platform and the mice were given 90 s for swimming. The criteria for the effectiveness of learning and memory formation were the time spent in the target and wrong quadrants, the latency period, and the number of entries to the platform area.

5xFAD transgenic mice [2] = assay: Ex vivo Congo red staining of Aβ plaques in brain sections; conditions: compared to untreated 5XFAD mice
Description: For histological examination, the mouse brain was fixed in 10% neutral buffered formalin (Leica Biosystems Inc., Buffalo Grove, IL, USA) at +4 °C for 24 h. Then, the material was dehydrated, defatted, and clarified in a Leica ASP200 apparatus (Leica Biosystems Inc., Buffalo Grove, IL, USA) using ethanol-xylene wiring according to the following scheme: deionized water—2 h; 70% ethanol—12 h; ethanol 96% sequentially—1 h, 30 min, 2 portions 15 min each; a mixture of ethanol and xylene 1:1—20 min; xylene—2 portions for 30 min each; paraffin—3 times for 1 h each. Then, the material was embedded in paraffin blocks using a Leica EG1160 apparatus (Leica Biosystems Inc., Buffalo Grove, IL, USA). […] The results were evaluated using a ZEISS LSM 880 laser scanning microscope with an Airyscan module (Carl Zeiss Vision, Jena, Germany). […] A 10 × 10 grid was imposed on images containing only brain tissue; then, in 10 grid cells located obliquely from top left to right bottom corner, we selected plaques using the ‘magic wand’ tool, so the average plaque area and luminosity were calculated. Three images were analyzed for each animal in each group; then, the average of three animals was calculated. […]

[3] = 5th day, versus untreated 5xFAD

| Structure (SMILES) | Effect on β-amyloid 1–40 aggregation (β-amyloid 1–40) | Mean latency time to hidden platform, first training day (5xFAD transgenic mice [1]) [s] | Mean latency time to hidden platform, fourth training day (5xFAD transgenic mice [1]) [s] | Probe trial: entries to the platform zone (5xFAD transgenic mice [1]; [3]) | Probe trial: latency for entering the platform zone (5xFAD transgenic mice [1]; [3]) | Platform search strategies (egocentric to allocentric navigation) (5xFAD transgenic mice [1]; training phase, 15 mg/kg i.p.) | Reduction in plaque load (Congo red-positive amyloid) (5xFAD transgenic mice [2]) | Probe trial: time spent in the wrong quadrant (5xFAD transgenic mice [1]; [3]) |
| --- | --- | --- | --- | --- | --- | --- | --- | --- |
| O=C(CCCCCCC(=O)NC1C2CC3CC(C2)CC1C3)NO (centres unmarked) [compound 15, N^1-(Adamant-2-yl)-N^8-Hydroxyoctanediamide] | noticeable fibrillation inhibition | 53.76 ± 2.79 | 34.28 ± 4.32 | increased entries to the platform | significantly reduced the latency for entering the platform zone | normalization of this situation and the successful formation of the allocentric cognitive map | 45% | – |
| O=C(/C=C/c1ccc(C(=O)NO)cc1)NC1C2CC3CC(C2)CC1C3 (centres unmarked) [compound 25, 4-((E)-3-((-Adamantan-2-yl)amino)-3-Oxoprop-1-en-1-yl)-N-Hydroxybenzamide] | noticeable fibrillation inhibition | 53.46 ± 2.75 | 38.63 ± 3.01 | improvement in these spatial memory parameters was also observed | improvement in these spatial memory parameters was also observed | – | No changes in β-amyloid plaque level | significant differences were found in the time spent in the wrong quadrant |
